According to US9636335B2, “Heteroaryl compounds as 5-HT4 receptor ligands” (Suven Life Sciences Ltd, priority 2011, dated 2017):

Columns and labels:
[1] = target: recombinant human 5-HT4 receptor (Homo sapiens (Human), UniProt Q13639); test: Determination of EC50 values for 5-HT4 receptor (CHO cells, pCRE-Luc reporter); type: cell-based; details: CHO cells expressing human 5-HT4 receptor, luciferase activity, 4 hours incubation
Method: A stable CHO cell line expressing recombinant human 5-HT4 receptor and pCRE-Luc reporter system was used for cell-based assay. The assay offers a non-radioactive based approach to determine binding of a compound to GPCRs. In this specific assay, the level of intracellular cyclic AMP which is modulated by activation or inhibition of the receptor is measured. The recombinant cells harbor luciferase reporter gene under the control of cAMP response element.
The above cells were grown in 96 well clear bottom white plates in Hams F12 medium containing 10% fetal bovine serum (FBS). Prior to the addition of compounds or standard agonist, cells were serum starved overnight. Increasing concentrations of test compounds were added in OptiMEM medium to the cells. The incubation was continued at 37° C. in CO2 incubator for 4 hours. Medium was removed and cells were washed with phosphate buffered saline. The cells were lysed and luciferase activity was measured in a Luminometer. Luminescence units were plotted against the compound concentrations using Graphpad software.

[2] = Rodent brain penetration study; details: male, Wistar, rat, brain homogenate and plasma, po, 10 mg/kg
Method: Three animals were housed in each cage. Animals were given water and food ad libitum throughout the experiment, and maintained on a 12 hours light/dark cycle.
Brain penetration was determined in discrete manner in rats. […] After acclimatization the rats were grouped according to the weight in each group, 3 animals were kept in individual cage and allowed free access to food and water. At each time point (0.50, 1, and 2 hours) n=3 animals were used.
The compounds of formula (I) was suitably preformulated and administered orally at (free base equivalent) 10 mg/kg. Blood samples were removed via, cardiac puncture by using isoflurane anesthesia the animals were sacrificed to collect brain tissue. […] The concentrations of the NCE compound in plasma and Brain were determined using LC-MS/MS method.
Extent of brain-plasma ratio was calculated (Cb/Cp).

[3] = Rodent pharmacokinetic study; type: in vivo, Male Wister rats; details: plasma, Wistar/Male rat; for bioavailability: 10 mg/kg oral vs 5 mg/kg intravenous
Method: Three to five animals were housed in each cage. […] Animals were fasted over night before oral dosing (p.o) and food pellets were allowed 2 hours post dosing, whereas intravenous dosing food and water were provided as ad libitum. Three rats were dosed with compounds of formula (I) (10 mg/kg) orally and intravenously (05 mg/kg).
At each time point blood was collected through jugular vein and immediately replenish with an equivalent volume of normal saline from freely moving rats. Collected blood was transferred into a labeled eppendr off containing 10 μL of heparin as anticoagulant. Typically blood samples were collected as following time points: Pre dose, 0.08 (only i.v.), 0.25, 0.5, 1, 2, 4, 6, 8, and 24 hours post dose (n=3). Blood was centrifuged at 4000 rpm for 10 minutes. Plasma was prepared and stored frozen at −20° C. until analysis.
Pharmacokinetic parameters Cmax, Tmax, AUCt, T1/2 and Bioavailability were calculated by non-compartmental model using standard non-compartmental model by using WinNonLin 5.0.1 or Phoenix WinNonlin 6.2 version Software package.

Male Wister rats = test: Object recognition task model; type: in vivo; details: p.o., rat
Method: (§1) The cognition enhancing properties of compounds of this invention were estimated by using this model.
Male Wister rats (230-280 grams) were used as experimental animals. Four animals were housed in each cage. […] Also the rats were habituated to individual arenas for 1 hour in the absence of any objects.
One group of 12 rats received vehicle (1 mL/Kg) orally and another set of animals received compound of the formula (I) either orally or i.p., before one hour of the familiar (T1) and choice trial (T2).
The experiment was carried out in a 50×50×50 cm open field made up of acrylic. In the familiarization phase, (T1), the rats were placed individually in the open field for 3 minutes, in which two identical objects (plastic bottles, 12.5 cm height×5.5 cm diameter) covered in yellow masking tape alone (a1 and a2) were positioned in two adjacent corners, 10 cms from the walls. After 24 hours of the (T1) trial for long-term memory test, the same rats were placed in the same arena as they were placed in T1 trial. Choice phase (T2) rats were allowed to explore the open field for 3 minutes in presence of one familiar object (a3) and one novel object (b) (Amber color glass bottle, 12 cm high and 5 cm in diameter). Familiar objects presented similar textures, colors and sizes. During the T1 and T2 trial, explorations of each object (defined as sniffing, licking, chewing or having moving vibrissae whilst directing the nose towards the object at a distance of less than 1 cm) were recorded separately by stopwatch. […] T1 is the total time spent exploring the familiar objects (a1+a2). T2 is the total time spent exploring the familiar object and novel object (a3+b).

rats = test: Radial arm maze, reversal of scopolamine induced amnesia; type: in vivo; details: p.o., rat
Excerpt: as §1

Chain of recombinant human 5-HT4 receptor (Q13639 whole entry): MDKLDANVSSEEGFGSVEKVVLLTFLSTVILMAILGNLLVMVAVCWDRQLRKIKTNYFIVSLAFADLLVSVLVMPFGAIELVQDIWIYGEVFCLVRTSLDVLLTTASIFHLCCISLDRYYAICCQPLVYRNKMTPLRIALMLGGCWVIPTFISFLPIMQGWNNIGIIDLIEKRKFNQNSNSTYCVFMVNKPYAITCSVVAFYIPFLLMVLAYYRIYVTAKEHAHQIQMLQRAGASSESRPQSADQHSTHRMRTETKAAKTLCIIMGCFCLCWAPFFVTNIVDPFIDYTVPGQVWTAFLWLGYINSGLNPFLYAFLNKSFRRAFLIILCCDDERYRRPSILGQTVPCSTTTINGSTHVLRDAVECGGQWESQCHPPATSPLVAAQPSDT

| Compound | EC50 [1] | Kp [2] | AUC(0-t) ([3]; 5 mg/kg, intravenous (bolus)) | Cmax ([3]; 5 mg/kg, intravenous (bolus)) | Tmax ([3]; 5 mg/kg, intravenous (bolus)) | half-life ([3]; 5 mg/kg, intravenous (bolus)) | bioavailability [3] | AUC(0-t) ([3]; 10 mg/kg, oral (gavage)) | Cmax ([3]; 10 mg/kg, oral (gavage)) | Tmax ([3]; 10 mg/kg, oral (gavage)) | half-life ([3]; 10 mg/kg, oral (gavage)) | Exploration time mean ± S.E.M, Familiar object (Male Wister rats; 3 mg/kg) | Exploration time mean ± S.E.M, Novel object (Male Wister rats; 3 mg/kg) | Inference (Male Wister rats; 3 mg/kg) | Reversal of Scopolamine Induced amnesia - Effective dose range (rats) | Exploration time mean ± S.E.M, Familiar object (Male Wister rats; 1 mg/kg) | Exploration time mean ± S.E.M, Novel object (Male Wister rats; 1 mg/kg) | Inference (Male Wister rats; 1 mg/kg) |
| --- | --- | --- | --- | --- | --- | --- | --- | --- | --- | --- | --- | --- | --- | --- | --- | --- | --- | --- |
| Nc1c(Cl)cc(-c2nnc(CCCN3CCCCC3)o2)c2c1CCCO2.O=C(O)C(O)C(O)C(=O)O [Example 20, 6-Chloro-8-[5-(3-piperidin-1-yl-propyl)-[1,3,4]oxadiazol-2-yl]-chroman-5-ylamine tartarate salt] | 104 nM | 0.5 ± 0.07 | 867 ± 173 ng·h/mL | 976 ± 305 ng/mL | 4.8 min | 48 ± 3.6 min | 46 ± 9% | 790 ± 153 ng·h/mL | 602 ± 35 ng/mL | 15 min | 61.8 ± 1.2 min | 4.69 ± 0.79 s | 11.04 ± 1.33 s | Active |  |  |  |  |
| Nc1c(Cl)cc(-c2nnc(C3CCN(C4CCC4)CC3)o2)c2c1CCCO2 [Example 14, 6-Chloro-8-[5-(1-cyclobutyl-piperidin-4-yl)-[1,3,4]oxadiazol-2-yl]-chroman-5-ylamine] | 1.3 nM | 2.24 ± 0.09 | 773 ± 45 ng·h/mL | 783 ± 124 ng/mL | 4.8 min | 73.2 ± 15.6 min | 42 ± 10% | 645 ± 136 ng·h/mL | 513 ± 125 ng/mL | 15 min | 57.6 ± 6.6 min |  |  |  | 1-10 mg/kg, p.o. | 5.06 ± 1.32 s | 12.68 ± 1.14 s | Active |
